{"source": "paper PMC9934487", "about": "“Aging decreases docosahexaenoic acid transport across the blood-brain barrier in C57BL/6J mice” (PLOS ONE, 2023)", "key": {"[1]": {"design": "method as in PMID 33054801", "conditions": "ref PMID 33054801; cited from earlier work"}, "[2]": {"tested_on": "rat brain endothelial cells (RBECs)", "experiment": "Cellular uptake of [14C]DHA by primary rat brain endothelial cells", "assay_type": "cell-based", "description": "The method of primary culture of rat brain endothelial cells (RBECs) is previously described. The meninges and white matter were carefully removed from the forebrains, and the gray matter was minced using a scalpel and enzymatic digestion by DMEM (Wako; 048–29763), including collagenase type 2 (1 mg/mL, Worthington, Lakewood, NJ, USA; CLS2) for 75 min at 37°C with agitation in the water bath. After inactivation by adding cold DMEM, the suspension was centrifuged (1,000 × g, 8 min). The pellet was separated by centrifugation in 20% BSA, (Wako, 011–27055)—DMEM (1,000 × g, 20 min). The pellet containing microvessels were further digested with DMEM including collagenase/dispase (1 mg/mL, Roche, Mannheim, Germany; 11097113001) for 20 min at 37°C with agitation in the water bath. After inactivation, microvessel clusters were separated on a 33% continuous Percoll (GE Healthcare, Buckinghamshire, UK; 17-5445-01) gradient, collected and plated on collagen type IV (0.1 mg/mL, Sigma; C5533) and fibronectin (0.075 mg/mL, Sigma; F1141-5MG) coated dishes. RBEC cultures were maintained in RBEC medium [DMEM/F12 (Wako; 042–30555) supplemented with 10% FBS (Biosera, Kansas, MO, USA; FB-1365/500), basic fibroblast growth factor (1.5 ng/mL, R&D, Minneapolis, MN, USA; 2099-FB-025), heparin (100 μg/mL, Sigma; H3149), insulin (5 μg/mL), transferrin (5 μg/mL), sodium selenite (5 ng/mL; insulin-transferrin-sodium selenite media supplement, Sigma; I1884), penicillin (100 units/mL), streptomycin (100 μg/mL; penicillin-streptomycin mixed solution, Nacalai Tesque; 09367–34) and gentamicin (50 μg/mL, Biowest, Riverside, MO, USA; L0012)] containing puromycin (4 μg/mL, Nacalai Tesque; 14861–84) at 37°C in a humidified atmosphere of 5% CO2/95% air, for three days and typically reached 70–80% confluency. […]\nTo measure the cellular uptake of DHA, RBECs cultured on a 24-well plate were incubated with 0.2 mL of physiological buffer containing 0.1 μCi/mL [^14C]DHA (incubation buffer) at 37°C for 30 s to 15 min. […] The total protein concentration in the cell lysates was determined using a Pierce™ BCA Protein Assay Kit. Samples were added to 10 mL of a liquid scintillation cocktail, then [^14C]DHA radioactivity in the cell lysate was measured using a liquid scintillation counter. The cellular uptake of [^14C]DHA by RBECs was expressed as cell/medium ratios calculated by dividing the radioactivity in one milligram of protein by the radioactivity in one microliter of the incubation buffer. The rate of cellular uptake was determined by the linear portion of the slope of the cell/medium ratios against the incubation time (0.5, 2, 5, and 10 min) graph."}, "[3]": {"tested_on": "bovine brain endothelial cells", "design": "method as in PMID: 9886086", "conditions": "2 h incubation; ref PMID: 9886086; cited from earlier work"}, "[4]": {"experiment": "In situ transcardiac brain perfusion competition assay with excess unlabeled DHA: brain uptake rate (Ki) in 2-month-old mice", "method": "(§1) Brain uptake of DHA was assessed in mice using an in situ transcardiac brain perfusion technique. […] The [1-^14C]DHA as NE-DHA (American Radiolabeled Chemicals, St. Louis, MO, USA; ARC0380), [^3H]mannitol (PerkinElmer, Waltham, MA, USA, NET101) and [^14C]sucrose (PerkinElmer, Waltham, MA, USA; NEC100X) were diluted to concentrations of 0.1 μCi/mL (DHA and sucrose) and 0.2 μCi/mL (mannitol) in a physiological buffer containing 141 mM NaCl (Sigma, St. Louis, MO, USA; 28–2270–5), 4 mM KCl (Wako, Osaka, Japan; 163–03545), 2.8 mM CaCl2 (Sigma; 05–0580), 1 mM MgSO4·7H2O (Kishida Chemical Co., Ltd., Osaka, Japan; 000–46905), 1 mM NaH2PO4·2H2O (Wako; 192–02815), 10 mM d-glucose (Wako; 041–00595), and 10 mM 4-(2-hydroxyethyl)-1-piperazineethanesulfonic acid (HEPES; Sigma; H4034); pH 7.4. In a competition assay, unlabeled NE-DHA (Sigma; D2534-100MG) was added to the perfusate (final concentration of unlabeled DHA: 100 μM) before infusion. Ethanol (Nacalai Tesque, Kyoto, Japan; 14713–95) was added to an equal volume of unlabeled DHA to the perfusate (final ethanol concentration: 0.001%) as the vehicle control.\n(§2) Mice were anesthetized using an intraperitoneal injection of 25% urethane (Sigma; 94300). The heart was exposed, the left jugular vein was severed, and the descending aorta was ligated. Perfusate containing [^14C]DHA, [^3H]mannitol, or [^14C]sucrose was then infused into the left ventricle of the heart at a rate of 2 mL/min for 0.5 to 1.5 min using a 27 gauge butterfly needle. In the uptake experiment for aged mice, the perfusate was infused for 1 min. After perfusion, the brain was removed, dissected into six regions (the olfactory bulb, forebrain, cortex, hippocampus, thalamus and hypothalamus, and cerebellum), and weighed. Each brain region was mixed with 1 mL of tissue solubilizer (Solvable™; PerkinElmer; 6NE9100) and incubated at 60°C for 24 h. Samples were prepared for scintillation counting by the addition of 0.2 mL H2O2 (Sigma; 13-1910-5) and 10 mL of liquid scintillation cocktail (Pico-Fluor Plus; PerkinElmer; 6013699). The radioactivity in the samples was then measured using a liquid scintillation counter (Packard 2250CA; PerkinElmer). Brain/perfusate ratios were calculated by dividing the radioactivity in 1 g of brain tissue by the radioactivity in an mL of perfusate. Whole brain values were calculated by dividing the total radioactivity in each brain region by the total weight of each brain region. The unidirectional influx rate (Ki) was determined by the linear portion of the slope in the plot of brain/perfusate ratio against perfusion time.\nResults are expressed as the mean ± standard error of the mean (SEM). Statistical analyses were performed using GraphPad Prism 8.0 (GraphPad, San Diego, CA, USA). […]"}, "[5]": {"experiment": "In situ transcardiac brain perfusion: brain/perfusate ratio at 1 min in 2-, 8-, 12- and 24-month-old mice", "assay_type": "in vivo, C57BL/6J mice", "conditions": "for decrease of [14C]DHA brain/perfusate ratio: 1 min perfusion at 2 mL/min", "method": "as §1, §2"}, "[6]": {"conditions": "cited from earlier work"}, "[7]": {"conditions": "co-infusion of an excess amount of DHA"}, "[8]": {"conditions": "capillary depletion after a 40 s in situ brain perfusion, ref PMID: 19442696"}}, "note": "“Also recorded” adds a separate entry of the source."}
{"smiles": "OC[C@@H](O)[C@@H](O)[C@H](O)[C@H](O)CO", "note": "[mannitol]", "values": [{"measurement": "brain concentrations and Kin compared with sucrose", "setting": "[1]", "value": "higher"}]}
{"smiles": "CC/C=C\\C/C=C\\C/C=C\\C/C=C\\C/C=C\\C/C=C\\CCC(=O)O", "note": "[unlabeled DHA, Docosahexaenoic acid]", "values": [{"measurement": "effect on cellular uptake rate of [14C]DHA in rat brain endothelial cells", "setting": "[2]; in the presence of unlabeled DHA, vs vehicle (Fig. F of response letter)", "value": "declined; also recorded: decreased"}, {"measurement": "fate of non-esterified DHA taken up by brain endothelial cells", "setting": "[3]", "value": "mainly incorporated into phosphatidylcholine"}, {"measurement": "inhibition at 100 µM", "setting": "[4]; Mus musculus, read-out: extent of inhibition of the brain uptake rate of [14C]DHA", "value": "~50", "unit": "%"}]}
{"smiles": "OC[C@@H](O)[C@@H](O)[C@H](O)[C@H](O)CO", "note": "[[^3H]mannitol, mannitol]", "values": [{"measurement": "effect of age on brain uptake of [3H]mannitol", "setting": "[5]; each brain region, 2-, 8-, 12-, 24-month-old mice, 1 min", "value": "no significant effects with age"}, {"measurement": "change in brain uptake (brain/perfusate ratio) of [3H]mannitol with age", "setting": "[5]; whole brain, 2-, 8-, 12-, 24-month-old mice, 1 min", "value": "No significant changes; also recorded: no significant differences"}, {"measurement": "Kin for [3H]mannitol", "setting": "[4]; [7]", "value": "not changed"}, {"measurement": "brain/perfusate ratio of [3H]mannitol", "setting": "[4]; [7]", "value": "increased"}]}
{"smiles": "CC/C=C\\C/C=C\\C/C=C\\C/C=C\\C/C=C\\C/C=C\\CCC(=O)O", "note": "[[^14C]DHA, Docosahexaenoic acid]", "values": [{"measurement": "difference of [14C]DHA brain/perfusate ratio", "setting": "[5]; forebrain, 2 vs. 12 months old", "value": 0.04489, "unit": "mL/g"}, {"measurement": "difference of [14C]DHA brain/perfusate ratio", "setting": "[5]; forebrain, 2 vs. 24 months old", "value": 0.05294, "unit": "mL/g"}, {"measurement": "difference of [14C]DHA brain/perfusate ratio", "setting": "[5]; hippocampus, 2 vs. 12 months old", "value": 0.03402, "unit": "mL/g"}, {"measurement": "difference of [14C]DHA brain/perfusate ratio", "setting": "[5]; hippocampus, 2 vs. 24 months old", "value": 0.06034, "unit": "mL/g"}, {"measurement": "difference of [14C]DHA brain/perfusate ratio", "setting": "[5]; olfactory bulb, 2 vs. 24 months old", "value": 0.04626, "unit": "mL/g"}, {"measurement": "difference of [14C]DHA brain/perfusate ratio", "setting": "[5]; thalamus and hypothalamus, 2 vs. 12 months old", "value": 0.04306, "unit": "mL/g"}, {"measurement": "difference of [14C]DHA brain/perfusate ratio", "setting": "[5]; thalamus and hypothalamus, 2 vs. 24 months old", "value": 0.05106, "unit": "mL/g"}, {"measurement": "decrease of [14C]DHA brain/perfusate ratio", "setting": "[5]; whole brain, 12-month-old vs 2-month-old mice", "value": 0.03275, "unit": "mL/g"}, {"measurement": "decrease of [14C]DHA brain/perfusate ratio", "setting": "[5]; whole brain, 24-month-old vs 2-month-old mice", "value": 0.03827, "unit": "mL/g"}, {"measurement": "rate of cellular uptake of [14C]DHA by RBECs", "setting": "[2]; 4°C", "value": 19.98, "unit": "μLmg protein^-1 min^-1"}, {"measurement": "rate of cellular uptake of [14C]DHA by RBECs", "setting": "[2]; 37°C", "value": 50.13, "unit": "μLmg protein^-1 min^-1"}, {"measurement": "time at which cellular uptake of [14C]DHA by RBECs peaked", "setting": "[2]; intact RBECs, 37°C", "value": 10, "unit": "min"}, {"measurement": "[14C]DHA detected in brain parenchymal fraction", "setting": "[6]; [8]", "value": "more than 90%"}, {"measurement": "[14C]DHA remaining in the endothelial cells of the brain vasculature", "setting": "[6]; [8]", "value": "less than 10%"}, {"measurement": "[14C]DHA remaining in endothelial cells of the brain vasculature", "setting": "[6]; capillary depletion after brain perfusion, ref 12 (printed [40])", "value": "less than 10%"}, {"measurement": "perfusion time at which brain uptake of [14C]DHA plateaued", "setting": "[4]; 2-month-old mice, perfusion at 2 mL/min", "value": 1.5, "unit": "min"}]}
